According to patent publication US11209582B2, “Composition, curable composition, cured film, near infrared cut filter, infrared transmitting filter, solid image pickup element, infrared sensor, and camera module” (FUJIFILM Corporation, priority 2016, dated 2021):

Assay: Measurement of solubility in solvent at 25° C.
Assay type: physicochemical
Conditions: organic solvent or mixture, thermodynamic from solid; in propylene glycol monomethyl ether acetate and 2-butanol at 25° C.
Protocol: <Measurement of Solubility>
A measurement sample was added to a solvent at 25° C. under the atmospheric pressure, the solution was stirred for 1 hour, and the solubility of the measurement sample in the solvent was obtained.

`N#C/C(c1cnc2cc(Cl)c(Cl)cc2n1)=c1\c2c(-c3ccc(OC(=O)c4ccc5c(c4)C(=O)N(CCCS(=O)(=O)O)C5=O)cc3)n(B(c3ccccc3)c3ccccc3)/c(=C(/C#N)c3cnc4cc(Cl)c(Cl)cc4n3)c2c(-c2ccc(OC(=O)c3ccc4c(c3)C(=O)N(CCCS(=O)(=O)O)C4=O)cc2)n1B(c1ccccc1)c1ccccc1` [B-634] and `CCN(CC)CCCN1C(=O)c2ccc(C(=O)Oc3ccc(-c4c5/c(=C(\C#N)c6cnc7cc(Cl)c(Cl)cc7n6)n(B(c6ccccc6)c6ccccc6)c(-c6ccc(OC(=O)c7ccc8c(c7)C(=O)N(CCCN(CC)CC)C8=O)cc6)c5/c(=C(\C#N)c5cnc6cc(Cl)c(Cl)cc6n5)n4B(c4ccccc4)c4ccccc4)cc3)cc2C1=O` [B-644] cannot be ordered by solubility at 1 h: < 100 µg/mL for the first, < 100 µg/mL for the second.

Assay: Absorption spectrum in solution (absorption maximum λmax, absorption coefficient)
Assay type: physicochemical
Conditions: not given
Text: It is preferable that the compound represented by Formula (1) is a compound having an absorption maximum in a wavelength range of 700 to 1200 nm. In addition, a ratio A1/A2 of an absorbance A1 at a wavelength of 500 nm to an absorbance A2 at the absorption maximum is preferably 0.1 or lower and more preferably 0.05 or lower. The absorbance of the compound is a value obtained from the absorption spectrum of the compound in the solution. Examples of a measurement solvent used for the measurement of the absorption spectrum of the compound represented by Formula (1) in the solution include chloroform, dimethyl sulfoxide, and tetrahydrofuran. In a case where the compound represented by Formula (1) is soluble in chloroform, chloroform is used as the measurement solvent. In addition, in a case where the compound represented by Formula (1) is not soluble in chloroform and is soluble in dimethyl sulfoxide or tetrahydrofuran, dimethyl sulfoxide or tetrahydrofuran is used as the measurement solvent.

Compound `COc1ccc2sc(C(C#N)=c3c4c(-c5ccc(O)cc5)n(B(c5ccccc5)c5ccccc5)c(=C(C#N)c5nc6cc(OC)ccc6s5)c4c(-c4ccc(O)cc4)n3B(c3ccccc3)c3ccccc3)nc2c1` [A-15] has a gram absorption coefficient of 200 L/g/cm.

Compound `COc1ccc2sc(C(C#N)=c3c4c(-c5ccc(O)cc5)n(B(c5ccccc5)c5ccccc5)c(=C(C#N)c5nc6cc(OC)ccc6s5)c4c(-c4ccc(O)cc4)n3B(c3ccccc3)c3ccccc3)nc2c1` [A-15] has a molar absorption coefficient of 185000 L/mol/cm.

Same assay, conditions: in chloroform

In order of rising “λmax (absorption maximum)” value:
1. CCC(C)COc1ccc(-c2c3c(=C(C#N)c4nc5ccccc5s4)n(B4Oc5ccccc5O4)c(-c4ccc(OCC(C)CC)cc4)c3c(=C(C#N)c3nc4ccccc4s3)n2B2Oc3ccccc3O2)cc1 (centres unmarked) [A-60]  717 nm
2. CCC(C)COc1ccc(-c2c3c(=C(C#N)c4nc5ccccc5s4)n(B(c4ccccc4)c4ccccc4)c(-c4ccc(OCC(C)CC)cc4)c3c(=C(C#N)c3nc4ccccc4s3)n2B(c2ccccc2)c2ccccc2)cc1 (centres unmarked) [A-1]  780 nm
3. CCC(C)COc1ccc(-c2c3c(=C(C#N)c4nc5cc(Cl)ccc5s4)n(B(c4ccccc4)c4ccccc4)c(-c4ccc(OCC(C)CC)cc4)c3c(=C(C#N)c3nc4cc(Cl)ccc4s3)n2B(c2ccccc2)c2ccccc2)cc1 (centres unmarked) [A-2]  782 nm
4. CCC(C)COc1cccc(-c2c3c(=C(C#N)c4nc5ccccc5s4)n(B(c4ccccc4)c4ccccc4)c(-c4cccc(OCC(C)CC)c4)c3c(=C(C#N)c3nc4ccccc4s3)n2B(c2ccccc2)c2ccccc2)c1 (centres unmarked) [A-25]  782 nm
5. CCC(C)COc1ccc(-c2c3c(=C(C#N)c4nc5cc(C)ccc5s4)n(B(c4ccccc4)c4ccccc4)c(-c4ccc(OCC(C)CC)cc4)c3c(=C(C#N)c3nc4cc(C)ccc4s3)n2B(c2ccccc2)c2ccccc2)cc1 (centres unmarked) [A-4]  785 nm
6. CCC(C)COc1ccc(-c2c3c(=C(C#N)c4nc5ccc(Cl)cc5s4)n(B(c4ccccc4)c4ccccc4)c(-c4ccc(OCC(C)CC)cc4)c3c(=C(C#N)c3nc4ccc(Cl)cc4s3)n2B(c2ccccc2)c2ccccc2)cc1 (centres unmarked) [A-3]  786 nm
7. CCC(C)COc1ccc(-c2c3c(=C(C#N)c4nc5ccc(C)cc5s4)n(B(c4ccccc4)c4ccccc4)c(-c4ccc(OCC(C)CC)cc4)c3c(=C(C#N)c3nc4ccc(C)cc4s3)n2B(c2ccccc2)c2ccccc2)cc1 (centres unmarked) [A-5]  788 nm
8. CCC(C)COc1ccc(-c2c3c(=C(C#N)c4nc5cc(C)c(C)cc5s4)n(B(c4ccccc4)c4ccccc4)c(-c4ccc(OCC(C)CC)cc4)c3c(=C(C#N)c3nc4cc(C)c(C)cc4s3)n2B(c2ccccc2)c2ccccc2)cc1 (centres unmarked) [A-6]  794 nm
9. CCC(C)COc1ccc(-c2c3c(=C(C#N)c4nc5cc(OC)ccc5s4)n(B(c4ccccc4)c4ccccc4)c(-c4ccc(OCC(C)CC)cc4)c3c(=C(C#N)c3nc4cc(OC)ccc4s3)n2B(c2ccccc2)c2ccccc2)cc1 (centres unmarked) [A-7]  794 nm
10. CCC(C)COc1cccc(-c2c3c(=C(C#N)c4nc5cc(C)c(C)cc5s4)n(B(c4ccccc4)c4ccccc4)c(-c4cccc(OCC(C)CC)c4)c3c(=C(C#N)c3nc4cc(C)c(C)cc4s3)n2B(c2ccccc2)c2ccccc2)c1 (centres unmarked) [A-30]  795 nm
11. COc1ccc2sc(C(C#N)=c3c4c(-c5ccc(OC(=O)c6ccccc6)cc5)n(B(c5ccccc5)c5ccccc5)c(=C(C#N)c5nc6cc(OC)ccc6s5)c4c(-c4ccc(OC(=O)c5ccccc5)cc4)n3B(c3ccccc3)c3ccccc3)nc2c1 [A-81]  800 nm
12. CCC(C)COc1ccc(-c2c3c(=C(C#N)c4nc5ccc(OC)cc5s4)n(B(c4ccccc4)c4ccccc4)c(-c4ccc(OCC(C)CC)cc4)c3c(=C(C#N)c3nc4ccc(OC)cc4s3)n2B(c2ccccc2)c2ccccc2)cc1 (centres unmarked) [A-8]  802 nm
13. CCC(C)COc1ccc(-c2c3/c(=C(\C#N)c4cnc5ccccc5n4)n(B(c4ccccc4)c4ccccc4)c(-c4ccc(OCC(C)CC)cc4)c3/c(=C(\C#N)c3cnc4ccccc4n3)n2B(c2ccccc2)c2ccccc2)cc1 (centres unmarked) [A-201]  862 nm
14. CN1C(=O)c2ccc(C(=O)Oc3ccc(-c4c5c(=C(C#N)c6cnc7cc(Cl)c(Cl)cc7n6)n(B(c6ccccc6)c6ccccc6)c(-c6ccc(OC(=O)c7ccc8c(c7)C(=O)N(C)C8=O)cc6)c5c(=C(C#N)c5cnc6cc(Cl)c(Cl)cc6n5)n4B(c4ccccc4)c4ccccc4)cc3)cc2C1=O [A-514]  883 nm
15. CCN(CC)CCCN1C(=O)c2ccc(C(=O)Oc3ccc(-c4c5/c(=C(\C#N)c6cnc7cc(Cl)c(Cl)cc7n6)n(B(c6ccccc6)c6ccccc6)c(-c6ccc(OC(=O)c7ccc8c(c7)C(=O)N(CCCN(CC)CC)C8=O)cc6)c5/c(=C(\C#N)c5cnc6cc(Cl)c(Cl)cc6n5)n4B(c4ccccc4)c4ccccc4)cc3)cc2C1=O [B-644]  883 nm

Same assay, conditions: in dimethyl sulfoxide (DMSO)

In order of rising “λmax (absorption maximum)” value:
1. N#CC(c1nc2cc(Cl)ccc2s1)=c1c2c(-c3ccc(O)cc3)n(B(c3ccccc3)c3ccccc3)c(=C(C#N)c3nc4cc(Cl)ccc4s3)c2c(-c2ccc(O)cc2)n1B(c1ccccc1)c1ccccc1 [A-10]  782 nm
2. N#CC(c1nc2ccccc2s1)=c1c2c(-c3ccc(O)cc3)n(B(c3ccccc3)c3ccccc3)c(=C(C#N)c3nc4ccccc4s3)c2c(-c2ccc(O)cc2)n1B(c1ccccc1)c1ccccc1 [A-9]  782 nm
3. Cc1cc2nc(C(C#N)=c3c4c(-c5ccc(O)cc5)n(B(c5ccccc5)c5ccccc5)c(=C(C#N)c5nc6cc(C)c(C)cc6s5)c4c(-c4ccc(O)cc4)n3B(c3ccccc3)c3ccccc3)sc2cc1C [A-14]  795 nm
4. COc1ccc2sc(C(C#N)=c3c4c(-c5ccc(O)cc5)n(B(c5ccccc5)c5ccccc5)c(=C(C#N)c5nc6cc(OC)ccc6s5)c4c(-c4ccc(O)cc4)n3B(c3ccccc3)c3ccccc3)nc2c1 [A-15]  795 nm
